From ChEMBL document CHEMBL3864139, “Phenylindenone isomers as divergent modulators of p38α MAP kinase” (Bioorg Med Chem Lett, 2016)
pIC50: −log10 of the molar value. Calls of active or inactive are those of the source. The rule behind the calls is not given here.

Columns and labels:
[1] = target: T1, Mitogen-activated protein kinase 14 (Homo sapiens, UniProt Q16539); test: Activation of human recombinant full length GST-tagged MAPK14 expressed in Escherichia coli assessed as increase in MAPK14 phosphorylation at 10 uM in presence of 500 uM of ATP by direct Z-LITE assay relative to control
T1 sequence (Q16539 whole entry): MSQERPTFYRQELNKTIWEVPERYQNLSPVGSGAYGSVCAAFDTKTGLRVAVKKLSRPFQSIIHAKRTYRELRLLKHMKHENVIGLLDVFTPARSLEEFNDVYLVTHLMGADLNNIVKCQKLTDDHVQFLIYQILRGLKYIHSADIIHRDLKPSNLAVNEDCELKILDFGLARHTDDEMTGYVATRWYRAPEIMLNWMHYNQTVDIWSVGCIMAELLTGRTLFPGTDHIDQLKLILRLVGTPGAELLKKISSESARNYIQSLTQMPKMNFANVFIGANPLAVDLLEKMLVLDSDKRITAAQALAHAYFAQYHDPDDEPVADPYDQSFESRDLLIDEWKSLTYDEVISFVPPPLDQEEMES

[2] = target: T1, Mitogen-activated protein kinase 14; test: Activation of human recombinant full length GST-tagged MAPK14 expressed in Escherichia coli assessed as increase in MAPK14 phosphorylation at 10 to 10000 nM in presence of 500 uM of ATP by direct Z-LITE assay
[3] = target: T1, Mitogen-activated protein kinase 14; test: Inhibition of human recombinant full length GST-tagged MAPK14 phosphorylation expressed in Escherichia coli in presence of 500 uM of ATP by direct Z-LITE assay
[4] = target: T1, Mitogen-activated protein kinase 14; test: Inhibition of human recombinant full length GST-tagged MAPK14 phosphorylation expressed in Escherichia coli in presence of 100 uM of ATP by direct Z-LITE assay

Row | Compound | Activity [1] [%] | Activity [2] | pIC50 [3] | pIC50 [4]
1 | O=C1C(c2ccncc2)=C(c2ccc(F)cc2)c2ccccc21 | 40 to 50 | Active | – | –
2 | O=C1C(c2ccc(F)cc2)=C(c2ccncc2)c2ccccc21 | – | – | 5.87 | 6.05
